Values of other authors in patent publication US12653831B2, “Methods for the non-toxic treatment for opioid drug withdrawal combining noribogaine and cannabinoids” (priority 2019, dated 2026).
Where two headings read alike, the source gives them in different places.

How the values were obtained:
CB2 receptors = CB2 receptors (Homo sapiens, UniProt P34972)
N13 microglial cells = conditions: ATP 400 μM, cultured N13 microglial cells
rat primary microglia = conditions: ATP 400 μM
primary microglia = conditions: for sensitivity of the induced migration to cannabinoid receptor antagonists: with CB(1)/CB(2) antagonists
β-amyloid-injected mice = conditions: subchronic administration for 3 weeks
[1] = not given; remark: listed apart in the source
[2] = high doses, various animal models

CB2 receptors, sequence (P34972 whole entry): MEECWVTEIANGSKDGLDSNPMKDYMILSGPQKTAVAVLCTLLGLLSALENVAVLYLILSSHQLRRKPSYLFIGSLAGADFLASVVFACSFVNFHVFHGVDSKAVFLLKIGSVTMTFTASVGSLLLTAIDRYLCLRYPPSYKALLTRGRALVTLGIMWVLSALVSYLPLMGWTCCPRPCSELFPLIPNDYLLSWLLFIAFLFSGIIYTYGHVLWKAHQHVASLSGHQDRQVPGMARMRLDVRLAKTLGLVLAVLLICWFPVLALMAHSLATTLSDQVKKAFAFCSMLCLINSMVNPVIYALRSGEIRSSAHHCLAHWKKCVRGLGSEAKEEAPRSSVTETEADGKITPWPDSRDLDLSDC

Compound: C=C(C)[C@@H]1CCC(C)=C[C@H]1c1c(O)cc(CCCCC)cc1O [CBD, cannabidiol]
- binding to CB2 receptors (CB2 receptors): binds very weakly
- tolerability (in humans): well tolerated without side effects
- psychoactive or cognitive effects (in vivo): does not induce psychoactive or cognitive effects
- effect on ATP-induced increase in intracellular calcium ([Ca(2+)](i)) (N13 microglial cells): concentration-dependently decreased
- effect on ATP-induced increase in intracellular calcium ([Ca(2+)](i)) (rat primary microglia): concentration-dependently decreased
- effect on primary microglia migration (primary microglia): promoted
- sensitivity of the induced migration to cannabinoid receptor antagonists (primary microglia): blocked by CB(1) and/or CB(2) antagonists
- cytokine gene expression (β-amyloid-injected mice): able to prevent
- learning of a spatial navigation task (β-amyloid-injected mice): able to prevent

Compound: CCCCCCC(C)(C)c1cc(OC)c([C@@H]2C=C(CO)[C@@H]3C[C@H]2C3(C)C)c(OC)c1 [HU-308]
- effect on ATP-induced increase in intracellular calcium ([Ca(2+)](i)) (N13 microglial cells): without effect
- effect on ATP-induced increase in intracellular calcium ([Ca(2+)](i)) (rat primary microglia): without effect
- effect on primary microglia migration (primary microglia): induced
- sensitivity of the induced migration to cannabinoid receptor antagonists (primary microglia): blocked by a CB(2) antagonist only

Compound: Cc1c(C(=O)c2cccc3ccccc23)c2cccc3c2n1[C@H](CN1CCOCC1)CO3 [WIN 55,212-2, (R)-(+)-[2,3-dihydro-5-methyl-3-(4-morpholinylmethyl)pyrrolo-[1,2,3-d,e]-1,4-benzoxazin-6-yl]-1-naphthalenyl-methanone]
- effect on ATP-induced increase in intracellular calcium ([Ca(2+)](i)) (N13 microglial cells): concentration-dependently decreased
- effect on ATP-induced increase in intracellular calcium ([Ca(2+)](i)) (rat primary microglia): concentration-dependently decreased
- effect on primary microglia migration (primary microglia): promoted
- sensitivity of the induced migration to cannabinoid receptor antagonists (primary microglia): blocked by CB(1) and/or CB(2) antagonists
- cytokine gene expression (β-amyloid-injected mice): able to prevent
- learning of a spatial navigation task (β-amyloid-injected mice): able to prevent

Compound: CC[C@H]1CC2C[C@H]3c4[nH]c5ccc(O)cc5c4CCN(C2)C13 [noribogaine, Noribogaine]
- effect on EKG QTc interval ([1]; dose of 30 mg daily): shortens the QTc interval
- effect on EKG QTc interval ([1]; higher doses (above 60 mg/day)): increase QTc
- adverse effects in preclinical toxicity studies [2]: serious cardiac and CNS adverse effects
